Assay results from patent publication US7902373B2 (Pfizer Inc, priority 2006, dated 2011).
pIC50: −log10 of the molar value.

molecular target: human recombinant H-PGDS (Homo sapiens, UniProt O60760); experiment: Fluorescence intensity h-PGDS TBA enzyme assay; type: biochemical; conditions: Examples up to 622 (and 3a, 3b)
Sequence (O60760 whole entry): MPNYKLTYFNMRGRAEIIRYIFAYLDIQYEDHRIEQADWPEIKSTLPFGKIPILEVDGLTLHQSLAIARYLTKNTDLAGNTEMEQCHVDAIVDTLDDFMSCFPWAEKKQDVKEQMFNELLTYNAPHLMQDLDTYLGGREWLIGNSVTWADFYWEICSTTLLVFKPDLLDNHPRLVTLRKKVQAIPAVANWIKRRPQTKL

SMILES | pIC50
CCC(COC)n1cnc2c(N3CCC(NC(=O)c4ccc(-c5cccc(F)c5)nc4)CC3)ncnc21 (stereo not drawn) [Example 110, 6-(3-Fluorophenyl)-N-(1-{9-[1-(methoxymethyl)propyl]-9H-purin-6-yl}piperidin-4-yl)nicotinamide] | 8.79
N#Cc1ccc(C(=O)c2cccnc2N2CCC(NC(=O)c3ccc(-c4cccc(F)c4)nc3)CC2)cc1 [Example 111, N-{1-[3-(4-Cyanobenzoyl)pyridin-2-yl]piperidin-4-yl}-6-(3-fluorophenyl)nicotinamide] | 8.79
O=C(NC1CCN(c2ncnc3c2ncn3C2CCCC2)CC1)c1ccc(-c2cccc(F)c2)nc1 [Example 112, N-[1-(9-Cyclopentyl-9H-purin-6-yl)piperidin-4-yl]-6-(3-fluorophenyl)nicotinamide] | 8.73
O=C(NC1CCN(c2ccc(C(=O)N3CCCC3)cn2)CC1)c1ccc(-c2cccc(F)c2)nc1 [Example 114, 6-(3-Fluorophenyl)-N-{1-[5-(pyrrolidin-1-ylcarbonyl)pyridin-2-yl]piperidin-4-yl}nicotinamide] | 8.64
Cc1cc(N2CCC(NC(=O)c3ccc(-c4cccc(F)c4)nc3)CC2)nc(N2CCCCC2)n1 [Example 116, 6-(3-Fluorophenyl)-N-[1-(6-methyl-2-piperidin-1-ylpyrimidin-4-yl)piperidin-4-yl]nicotinamide] | 8.59
O=C(NC1CCN(c2nccc(-c3ccccc3CCO)n2)CC1)c1ccc(-c2cccc(F)c2)nc1 [Example 119, 6-(3-Fluorophenyl)-N-(1-{4-[2-(2-hydroxyethyl)phenyl]pyrimidin-2-yl}piperidin-4-yl)nicotinamide] | 8.43
CCOC(=O)c1cnc(N2CCC(NC(=O)c3ccc(-c4cccc(F)c4)nc3)CC2)cc1N1CCOCC1 [Example 120, Ethyl 6-[4-({[6-(3-fluorophenyl)pyridin-3-yl]carbonyl}amino)piperidin-1-yl]-4-morpholin-4-ylnicotinate] | 8.46
COc1cc2c(N3CCC(NC(=O)c4ccc(-c5cccc(F)c5)nc4)CC3)ncnc2c(OC)c1OC [Example 123, 6-(3-Fluorophenyl)-N-[1-(678-trimethoxyquinazolin-4-yl)piperidin-4-yl]nicotinamide] | 8.33
O=C(NC1CCN(c2ncc(Br)cn2)CC1)c1ccc(-c2cccc(F)c2)nc1 [Example 127, N-[1-(5-Bromopyrimidin-2-yl)piperidin-4-yl]-6-(3-fluorophenyl)nicotinamide] | 8.40
O=C(NC1CCN(c2ncnc3[nH]ncc23)CC1)c1ccc(-c2cccc(F)c2)nc1 [Example 129, 6-(3-Fluorophenyl)-N-[1-(1H-pyrazolo[3,4-d]pyrimidin-4-yl)piperidin-4-yl]nicotinamide] | 8.20
COc1cc2nc(N3CCC(NC(=O)c4ccc(-c5cccc(F)c5)nc4)CC3)nc(N)c2cc1OC [Example 130, N-[1-(4-Amino-6,7-dimethoxyquinazolin-2-yl)piperidin-4-yl]-6-(3-fluorophenyl)nicotinamide] | 8.34
Cc1cnc(C)c(N2CCC(NC(=O)c3ccc(-c4cccc(F)c4)nc3)CC2)n1 [Example 134, N-[1-(3,6-Dimethylpyrazin-2-yl)piperidin-4-yl]-6-(3-fluorophenyl)nicotinamide] | 8.74
O=C(NC1CCN(c2ncccc2C(F)(F)F)CC1)c1ccc(-c2cccc(F)c2)nc1 [Example 135, 6-(3-Fluorophenyl)-N-{1-[3-(trifluoromethyl)pyridin-2-yl]piperidin-4-yl}nicotinamide] | 8.83
O=C(NC1CCN(c2nccc(C(F)(F)F)n2)CC1)c1ccc(-c2cccc(F)c2)nc1 [Example 136, 6-(3-Fluorophenyl)-N-{1-[4-(trifluoromethyl)pyrimidin-2-yl]piperidin-4-yl}nicotinamide] | 8.29
O=C(NC1CCN(c2ccc(Cl)cn2)CC1)c1ccc(-c2cccc(F)c2)nc1 [Example 137, N-[1-(5-Chloropyridin-2-yl)piperidin-4-yl]-6-(3-fluorophenyl)nicotinamide] | 8.85
O=C(NC1CCN(c2cnc3ccccc3n2)CC1)c1ccc(-c2cccc(F)c2)nc1 [Example 138, 6-(3-Fluorophenyl)-N-(1-quinoxalin-2-ylpiperidin-4-yl)nicotinamide] | 8.91
COCc1cc(N2CCC(NC(=O)c3ccc(-c4cccc(F)c4)nc3)CC2)nc(-c2ccccc2)n1 [Example 144, 6-(3-Fluorophenyl)-N-{1-[6-(methoxymethyl)-2-phenylpyrimidin-4-yl]piperidin-4-yl}nicotinamide] | 8.02
CCOC(=O)c1cnc(C(F)(F)F)nc1N1CCC(NC(=O)c2ccc(-c3cccc(F)c3)nc2)CC1 [Example 145, Ethyl 4-[4-({[6-(3-fluorophenyl)pyridin-3-yl]carbonyl}amino)piperidin-1-yl]-2-(trifluoromethyl)pyrimidine-5-carboxylate] | 8.23
O=C(NC1CCN(c2ncccc2C(=O)N2CCOCC2)CC1)c1ccc(-c2cccc(F)c2)nc1 [Example 146, 6-(3-Fluorophenyl)-N-{1-[3-(morpholin-4-ylcarbonyl)pyridin-2-yl]piperidin-4-yl}nicotinamide] | 8.81
NC(=O)c1ccc(C(F)(F)F)nc1N1CCC(NC(=O)c2ccc(-c3cccc(F)c3)nc2)CC1 [Example 148, 2-[4-({[6-(3-Fluorophenyl)pyridin-3-yl]carbonyl}amino)piperidin-1-yl]-6-(trifluoromethyl)nicotinamide] | 8.76

Continued by rising pIC50, values first:

pIC50 | SMILES
8.92 | Cc1nc(N2CCC(NC(=O)c3ccc(-c4cccc(F)c4)nc3)CC2)c(C#N)cc1F [Example 121, N-[1-(3-Cyano-5-fluoro-6-methylpyridin-2-yl)piperidin-4-yl]-6-(3-fluorophenyl)nicotinamide]
9.05 | CC(C)n1cnc2c(N3CCC(NC(=O)c4ccc(-c5cccc(F)c5)nc4)CC3)ncnc21 [Example 118, 6-(3-Fluorophenyl)-N-[1-(9-isopropyl-9H-purin-6-yl)piperidin-4-yl]nicotinamide]
9.13 | O=C(NC1CCN(c2ncnc3c2ncn3C2CCCCO2)CC1)c1ccc(-c2cccc(F)c2)nc1 (stereo not drawn) [Example 147, 6-(3-Fluorophenyl)-N-{1-[9-(tetrahydro-2H-pyran-2-yl)-9H-purin-6-yl]piperidin-4-yl}nicotinamide]
9.14 | Cc1noc(NC(=O)c2cccnc2N2CCC(NC(=O)c3ccc(-c4cccc(F)c4)nc3)CC2)c1C#N [Example 141, N-(4-Cyano-3-methylisoxazol-5-yl)-2-[4-({[6-(3-fluorophenyl)pyridin-3-yl]carbonyl}amino)piperidin-1-yl]nicotinamide]
9.16 | Cc1cc(N(C)C)nc(N2CCC(NC(=O)c3ccc(-c4cccc(F)c4)nc3)CC2)n1 [Example 143, N-{1-[4-(Dimethylamino)-6-methylpyrimidin-2-yl]piperidin-4-yl}-6-(3-fluorophenyl)nicotinamide]
9.16 | O=C(NC1CCN(c2nccc(Nc3cc[nH]n3)n2)CC1)c1ccc(-c2cccc(F)c2)nc1 [Example 128, 6-(3-Fluorophenyl)-N-{1-[4-(1H-pyrazol-3-ylamino)pyrimidin-2-yl]piperidin-4-yl}nicotinamide]
9.18 | N#Cc1cnc(N2CCC(NC(=O)c3ccc(-c4cccc(F)c4)nc3)CC2)nc1N [Example 126, N-[1-(4-Amino-5-cyanopyrimidin-2-yl)piperidin-4-yl]-6-(3-fluorophenyl)nicotinamide]
9.20 | N#Cc1cccnc1N1CCC(NC(=O)c2ccc(-c3cccc(F)c3)nc2)CC1 [Example 140, N-[1-(3-Cyanopyridin-2-yl)piperidin-4-yl]-6-(3-fluorophenyl)nicotinamide]
9.33 | Cc1nnc(N2CCC(NC(=O)c3ccc(-c4cccc(F)c4)nc3)CC2)c2ccccc12 [Example 131, 6-(3-Fluorophenyl)-N-[1-(4-methylphthalazin-1-yl)piperidin-4-yl]nicotinamide]
9.37 | O=C(NC1CCN(c2ncnc3cc(F)ccc23)CC1)c1ccc(-c2cccc(F)c2)nc1 [Example 117, 6-(3-Fluorophenyl)-N-[1-(7-fluoroquinazolin-4-yl)piperidin-4-yl]nicotinamide]
9.40 | Cc1nc(N)cc(N2CCC(NC(=O)c3ccc(-c4cccc(F)c4)nc3)CC2)n1 [Example 133, N-[1-(6-Amino-2-methylpyrimidin-4-yl)piperidin-4-yl]-6-(3-fluorophenyl)nicotinamide]
9.44 | Nc1nc(N2CCC(NC(=O)c3ccc(-c4cccc(F)c4)nc3)CC2)c2nc[nH]c2n1 [Example 132, N-[1-(2-Amino-9H-purin-6-yl)piperidin-4-yl]-6-(3-fluorophenyl)nicotinamide]
9.46 | O=C(NC1CCN(c2ncnc3[nH]ccc23)CC1)c1ccc(-c2cccc(F)c2)nc1 [Example 124, 6-(3-fluorophenyl)-N-[1-(7H-pyrrolo[23-d]pyrimidin-4-yl)piperidin-4-yl]nicotinamide]
9.48 | N#Cc1nccnc1N1CCC(NC(=O)c2ccc(-c3cccc(F)c3)nc2)CC1 [Example 142, N-[1-(3-Cyanopyrazin-2-yl)piperidin-4-yl]-6-(3-fluorophenyl)nicotinamide]
9.58 | COCCNC(=O)c1ccc(N2CCC(NC(=O)c3ccc(-c4cccc(F)c4)nc3)CC2)nc1 [Example 113, 6-(3-Fluorophenyl)-N-[1-(5-{[(2-methoxyethyl)amino]carbonyl}pyridin-2-yl)piperidin-4-yl]nicotinamide]
9.62 | O=C(NC1CCN(c2ncnc3c2ncn3C2CC2)CC1)c1ccc(-c2cccc(F)c2)nc1 [Example 115, N-[1-(9-Cyclopropyl-9H-purin-6-yl)piperidin-4-yl]-6-(3-fluorophenyl)nicotinamide]
9.65 | O=C(NC1CCN(c2ncccn2)CC1)c1ccc(-c2cccc(F)c2)nc1 [Example 139, 6-(3-Fluorophenyl)-N-(1-pyrimidin-2-ylpiperidin-4-yl)nicotinamide]
9.75 | Cn1cnc2c(N3CCC(NC(=O)c4ccc(-c5cccc(F)c5)nc4)CC3)ncnc21 [Example 125, 6-(3-Fluorophenyl)-N-[1-(9-methyl-9H-purin-6-yl)piperidin-4-yl]nicotinamide]
9.77 | COc1ccc2c(N3CCC(NC(=O)c4ccc(-c5cccc(F)c5)nc4)CC3)ncnc2c1OC [Example 122, N-[1-(7,8-Dimethoxyquinazolin-4-yl)piperidin-4-yl]-6-(3-fluorophenyl)nicotinamide]
